Experimental data from patent US20210283056A1, “COMPOSITIONS FOR THERAPEUTICS PRESCREENING” (BARCODE DIAGNOSTICS LTD., priority 2018, published 2021).
Where two headings read alike, the source gives them in different places.

Legend:
[1] = test system: triple negative breast cancer tumors; assay: Barcode analysis in live and dead tumor cells after injection of liposome mixes; assay type: in vivo, BALB/c female mice; details: 5%
Description: FIGS. 1A-D: Detection of barcodes from liposome mixes with equal relative drug concentrations. […] Potency of the drugs was defined as the ratio of the amount of a barcode in dead cells to the amount of that barcode in live cells. (1D) A bar chart showing fluorescence from dead cells after treatment with two mixes of liposomes.
Each drug has its own specific effective therapeutic dose (ETD), and in order to test efficacy it is reasonable that each liposome mix (a mix of all three types of liposomes to be injected together) should have the same relative amount of each drug. That is, in order to determine an ideal dose, batches of mixed liposomes were generated in which all three drugs were present in a concentration that was either 5%, 1% or 0.1% of the effective therapeutic dose. Table 2 provides the amounts (in ul) of each liposome batch that were added to the mix in order to provide each total dose.
Cell from a triple negative breast cancer tumor were transplanted to the fat pad of BALB/c female mice and allowed to grow to form tumors in the mice. The mice were separated into 3 groups and then each group was injected with the 5%, 1% or 0.1% liposome mixes. 48 hours post injection the tumors were excised, and live/dead cell analysis was performed by FACS, followed by barcode analysis in live and dead cells separately.

[2] = test system: 4T1 derived cancers and metastases; details: cited from earlier work; for Effect on tumor growth: Kiew et al., 2012
Cells growing in culture = assay: Barcode quantification by Real Time PCR, dead vs. live cells; assay type: cell-based
Protocol: Cells growing in culture were treated with the liposome mixes and 48 hours after exposure the cell were subjected to viability assay. Dead cells from each study group (in triplicates) were first pelleted by centrifugation of supernatant and kept at −20 C until further analysis. Fresh medium supplemented with 10% Presto Blue Reagent (ThermoFisher Scientific) was added to cells and incubated at 37 C for about 90 minutes. 100 ul of each well was transferred to a black 96 wells plate and Fluorescence was recorded ([…]). Viability was calculated as Fluorescence of each sample relative to fluorescence of non-treated cells. Both mixes killed a similar amount of cells. Immediately following the viability assay, adherent cells were detached by addition of trypsin to the wells. Barcode analysis by Real Time PCR was performed as follows. The different barcodes were analyzed using a ThermoFisher Scientific Quantstudiol PCR System. The assay was run with TaqMan Fast Advanced master mix (ThermoFisher Scientific), primers (IDT) and a barcode specific probe labeled on the 5′ end with fluorescent FAM dye and on its 3′ end with a nonfluorescent quencher linked to a Minor Groove Binder (MGB) (ThermoFisher Scientific). […] After preparation of all dilutions, Real Time PCR was used to validate the standard curve. A reaction was run for all barcodes together. Reaction settings were as follow: 2 μL of sample was run in a Real Time Quantstudiol PCR instrument, using fast template protocol. Each sample was run in duplicate. Each barcode tested was compared to a standard curve run on the same plate. Each barcode reaction comprised at least 4 NTCs. In the Set Up, target (barcode tested), task (sample=Unknown/Standard/NTC), name and biological group were assigned to each sample. […] Analysis calculated average amount of barcode copies between replicate samples. This quantity was obtained for 2 μl of sample (volume of sample in RT-PCR reaction) and was adjusted to the final volume of the sample. The ratio of each barcode found in dead vs. live cells was calculated.

[3] = first batch of liposomes (equal liposome number)

SMILES	Effectiveness relative to the other two drugs ([1]; 1% or 0.1% mixes, patent regards it as likely artifact) [fold]	Potency (barcode in dead cells to live cells) ([1]; 1% or 0.1% of ETD liposome mixes, 48 hours post injection)	Effect on tumor growth ([2]; first couple of days of treatment)	Effect on tumor growth ([2]; later time points)	Effective at killing the cells (Cells growing in culture; [3])	Sensitivity of 4T1 derived cancers and metastases ([2]; reported)	Resistance of 4T1 cells ([2]; reported)	Effective at killing the cells (Cells growing in culture; second batch of liposomes (equal relative drug concentration))
Nc1ccn([C@@H]2O[C@H](CO)[C@@H](O)C2(F)F)c(=O)n1 [Gemcitabine]	> 10	most effective treatment	retards tumor growth	not be effective	effective	–	–	–
N.N.[Cl][Pt][Cl] [cisplatin]	–	–	–	–	–	highly sensitive	–	–
COc1cccc2c1C(=O)c1c(O)c3c(c(O)c1C2=O)C[C@@](O)(C(=O)CO)C[C@@H]3O[C@H]1C[C@H](N)[C@H](O)[C@H](C)O1 [doxorubicin]	–	–	–	–	effective	less so	become resistant	effective
